The record followed here is patent publication US6355815B1, “Method of producing hydrogen peroxide and reaction promoters therefor” (Degussa AG, priority 1998, dated 2002).

Data set [1] is described as follows: Oxidation stability of the quinone (oxygen, radical initiator, 150° C.). Particulars: 0.04 mole quinone in 100 ml 1,2-dichlorobenzene, 10 mg azo-bis-isobutyronitrile, excess oxygen, after 24 h. It counts as physicochemical.
Experimental: After the addition of 10 mg azo-bis-isobutyronitrile as radical initiator the mixture was agitated under excess of oxygen at 150° C. with a gassing agitator. After 24 h the quinone content was determined by chromatography.
Data set [2] can be described thus: Maximum H2O2 capacity in continuous cyclic anthraquinone process test system. Particulars: compared with EAQ. The protocol: A working solution consisting of 75% by volume aromatic benzine (C9/C10-alkyl aromatic mixture), 25% by volume tris (2-ethylhexylphosphate), 0.11 mol/l 2-ethylanthraquinone, 0.29 mol/l 2-ethyltetrahydroanthraquinone, 0.13 mol/l 2-isohexylanthraquinone and 0.12 mol/l 2-isohexyltetrahydroanthraquinone was tested in a test system for the cyclic process of the anthraquinone method for producing hydrogen peroxide, consisting of the method steps of hydrogenation, oxidation, and extraction as well as of drying, regeneration and purification concerning the maximum H2O2 production capacity obtainable in continuous operation (g H2O2 produced per liter working solution). […]
The maximum H2O2 capacity of a working solution consisting of 75 by volume aromatic benzine (C9/C10-alkyl aromatic mixture), 25% by volume tris (2-ethylhexyl) phosphate, 0.12 mol/l 2-ethylanthraquinone, 0.28 mol/l 2-ethyltetrahydroanthraquinone, 0.13 mol/l 2-amylanthraquinone and 0.12 mol/l 2-amyltetrahydroanthraquinone was determined analogously to example 6. […]
The maximum H2O2 capacity of a working solution whose solvent system was based essentially on a C9/C10-aromatic benzine and tetrabutylurea (volumetric ratio AB:TBH approximately 3:1) was determined analogously to example 6 at a hydrogenation temperature of 60° C. […]

Take `CCc1ccc2c(c1)C(=O)c1ccccc1C2=O` [EAQ, 2-ethyl anthraquinone, reference compound]: the residual quinone content in data set [1] was 90%.
Take `CC(C)=CCCc1ccc2c(c1)C(=O)c1ccccc1C2=O` [IHEAQ, 2-(4-methyl-3-pentenyl) anthraquinone]: the residual quinone content in data set [1] worked out at 41%. Besides, in data set [2], the “oxidative degradation under the conditions of the cyclic anthraquinone process” value is recorded as “not degraded oxidatively more than EAQ”.
